Data published in patent US20070203060A1, “Casein Derived Peptides And Therapeutic Uses Thereof” (priority 2004, published 2007).
“Also recorded” adds a separate entry of the source.

How the values were obtained:
[1] = tested on: murine primary bone marrow cells (CFU-GEMM); experiment: Multipotential colonies (CFU-GEMM) from murine bone marrow cells, colony and differential counts; type: cell-based, mouse; details: for Early (E.MK) megakaryocyte formation (in words): 25 μg or more, 14 days; for Early (E.MK) megakaryocyte formation (in words) / increase in total megakaryocyte proliferation over controls: FIG. 21; for increase in total megakaryocyte proliferation over controls: differential count; for megakaryocyte formation and development (in words): 8 days treatment
Experimental: Proliferation of megakaryocytes in multipotential colonies (CFU-GEMM) from murine Bone Marrow cells: Primary bone marrow cells (1×10^5 per ml) from 8-12 week-old C3H/HeJ mice were grown in serum-free methyl cellulose-IMDM medium for 8-9 days at 5% CO2, 95% air, at 37° C. The medium, appropriate for the growth of multipotential colonies (CFU-GEMM), contained 1% BSA (Sigma), 10^−4 M thioglycerol (Sigma), 2.8×10^−4 M human transferrin (TF, Biological industries, Israel), 10% WEHI-CM as a source of IL-3 and 2 units per ml erythropoietin (rhEPO, R & D Systems, Minneapolis). […] They were picked with a micropipette, cytocentrifuged and stained with May-Grunwald-Giemsa for differential counts. At least 700 cells were counted for each preparation. […]

[2] = tested on: platelets of myeloablated, bone marrow transplanted mice; experiment: Platelet reconstitution in irradiated bone marrow transplant recipient mice; type: in vivo, mouse; details: for enhancement of platelet counts compared to control mice: F1 mice, 750 cGy, 1 mg i.v., 10 days post-transplantation; for increase in platelet counts over untreated controls / platelet count: 800 cGy, 4 daily i.p. injections; for increase in platelet counts over untreated controls: 100 μg per mouse
Experimental: Leukocyte and platelet reconstitution in bone marrow transplant recipient mice: BALB/c mice were sub-lethally irradiated at a source to skin distance of 70 cm, dosage of 50 cGy per minute, for a total of 600 cGy. The irradiated mice were reconstituted with syngeneic bone marrow as described above and injected intravenously 24 hours later with 1 mg per animal peptides derived from natural casein, synthetic peptides derived from casein (13-26 amino acids, see Table 3 above), or human serum albumin (controls), following a double-blinded protocol. Leukocyte reconstitution was determined according to cell count in peripheral blood collected at indicated intervals from 6 to 12 days post treatment. Platelet reconstitution was determined by cell count in blood collected from the retro orbital plexus, into EDTA-containing vials, at indicated intervals from day 6 to day 15 post treatment.
In an additional series of experiments, CBA mice were lethally irradiated (900 cGy), reconstituted with BM cells and treated with peptides derived from natural casein or human serum albumin as described above. Platelet reconstitution was assayed as mentioned above.
[…] Platelet reconstitution was assayed at 10 and 12 days post-transplantation.

[3] = tested on: HIV-1 infection of CEM cells; experiment: Inhibition of in vitro HIV-1 infection of CEM lymphocytes (cell counts, P24 antigen assay); type: cell-based
Experimental: Peptides: Peptides (either peptides derived from natural casein or synthetic peptides derived from casein (2-26 amino acids in length, see table 3) supplied as lyophilized powder were resuspended in RPMI complete medium and added to cell cultures at a final concentrations of 50 to 1000 μg per ml.
Cells: Several types of freshly isolated human cells (primary cells) and cell lines are known to be susceptible to in vitro HIV-1 infection, although essentially any cell displaying even low surface levels of the CD4molecule can be considered a potential target for HIV-1 infection. Two commonly used human cell lines which are highly sensitive for HIV-1 infection were chosen, CEM and Sup-T1.
CEM is a human T4-lymphoblastoid cell line initially derived by G. E. Foley et al. [(1965), Cancer 18:522] from peripheral blood buffy coat of a person with acute lymphoblastic leukemia. These cells were continuously maintained in suspension in medium, and have been used widely for analysis of infectivity, antiviral agents and neutralizing antibodies.
Virus: The HIV virus strain employed was HIV-1IIIB, originally designated HTLV-IIIB. Concentrated culture fluids of peripheral blood from several patients with AIDS or related diseases were used to establish a permanent productive infection in H-9 cells. This subtype B virus has high capacity to replicate in human T-cell lines. Viral titer was 5.38 ng per ml in stock solution.
HIV-1 P^24 antigen capture assay: An HIV-1 P^24 Antigen capture assay kit employed was designed to quantitate the HIV-1 P^24 core antigen, which is proportionally related to the degree of viral production in cells. This kit was purchased from the AIDS Vaccine program of the SAIC-NCI-Frederick Cancer Research Institute, P.O. Box B, Frederick, Md. 21702, USA and included 96 well plates coated with monoclonal antibody to HIV-1 P^24, primary antibody-rabbit anti-HIV P^24 serum, secondary antibody-Goat anti-rabbit-IgG (H+ L) peroxidase conjugated antibody, TMB peroxidase substrate system and lysed HIV-1 P^24 standard. The HIV-1 P^24 antigen capture assay was analyzed by Organon-Technica ELISA reader at 450 nm with a reference at 650 nm.
HIV-1 P^24 antigen capture ELISA: HIV infection was measured with an indirect enzyme immunoassay which detects HIV-1 P^24 core antigens in tissue culture media. Tissue culture supernatant was reacted with primary rabbit anti-HIV-1 P^24 antigen and visualized by peroxidase conjugated goat anti rabbit IgG. The reaction was terminated by adding 4N H2SO4, wherein the intensity of the color developed is proportional to the amount of HIV-1 antigen present in the tissue culture supernatant.
HIV infection of human cultured CD4 cells: For longer incubations, the cells (CEM, Sup-T1) were preincubated with several increasing concentrations of peptides derived from natural casein (50-1000 μg per ml) or synthetic peptides derived from casein (10-500 μg per ml) for 24 (for synthetic and natural peptides) and 48 (only for natural peptides) hours and HIV-1IIIB (45 pg per ml final concentration) was added to each well thereafter. For the shorter incubations (3 hours), HIV-1IIIB was preincubated with the peptides for 3 hours and then added to cells (5000 cells/well) in tissue culture plates. Controls were IF (Infected, cells cultured with HIV-1 and without peptides), UIF (Uninfected, cells cultured without HIV-1 and without peptides) and UIF+Ch (Uninfected+peptides derived from natural casein, cells cultured in the presence of peptides derived from natural casein {50-1000 μg per ml}) to test the effect of peptides derived from natural casein and synthetic peptides derived from casein on cell viability and growth. Cells were counted for viability and proliferation rate on day 7, 10 and day 14 post infection (the day of P^24 antigen culture supernatant harvest). Cells and tissue culture supernatants (media) were harvested and lysed immediately in 1/10 volume of 10% Triton X-100. […]

[4] = tested on: human Peripheral Blood Stem Cells / K562 target cells; experiment: NK activity of cultured human PBSC (35S release from K562 target cells); type: cell-based
Experimental: From human Peripheral Blood Stem Cells (PBSC): PBSC of G-CSF treated subjects were separated on a FICOLL gradient, washed twice with RPMI-1640 medium containing 10% FCS and glutamine, and seeded into 1.5 ml wells with or without peptides derived from natural casein or synthetic peptides derived from casein, as indicated, (0-500 μg per ml). Following two days incubation the cells were assayed for Natural Killer activity by measuring radioactivity released from ^35S-labeled K562 target cells (NEG-709A, 185.00 MBq, 2.00 mCi EASYTAGth Methionine, L-[^35S] 43.48 TBq per mmol, 1175.0 Ci per mmol, 0.488 ml, Boston USA). Two concentrations of effector cells (2.5×10^5 and 5×10^5 cells per well) were incubated with 5×10^3 target cells per well (effector:target cell ratios of 50:1 and 100:1, respectively) in U-bottomed 96 well tissue culture plates. The cells were incubated for 5 hours at 37° C. in 5% CO2, 95% air and precipitated by 5 minutes centrifugation at 1000 rpm. ^35S release was measured in 50 μl samples of the supernatant liquid.

[5] = tested on: glucose metabolism in NOD mice; experiment: Intraperitoneal Glucose Tolerance Test (IPGTT) in NOD mice; type: in vivo, mouse; details: healthy NOD mice after 25 weeks
Experimental: Intraperitoneal Glucose Tolerance Test (IPGTT): The glucose tolerance test is the definitive method for investigating glucose metabolism and diabetic tendencies in mammals. Twenty five (25) weeks after receiving Synthetic peptides derived from casein, response to a glucose load was assessed with an intraperitoneal glucose tolerance test. Glucose injection consisted of 1 g/kg body weight. Glycemic values were determined from blood drawn prior to test (0 minutes) and 60 minutes after loading.

[6] = tested on: peripheral white blood cells of myeloablated, bone marrow transplanted mice; experiment: Leukocyte reconstitution in irradiated bone marrow transplant recipient mice; type: in vivo, mouse; details: for peripheral white blood cell count: BALB/c, 600 cGy, 1 mg per mouse i.p.; for early leukocyte reconstitution (in words): F1 mice, 750 cGy, 1 mg i.v., 5 and 7 days post-transplantation
[7] = tested on: human bone marrow progenitor cells (CFU-GM); experiment: CFU-GM colonies from human bone marrow progenitor cells with IL-3 and G-CSF; type: cell-based; details: 300 μg/ml, G-CSF and IL-3, 14 days
Experimental: Cells were scored in the macroscopic colonies grown from human bone marrow cells prepared similarly to the CFU-GEMM colonies previously described. Cells were incubated with hematopoietic factors cytokine (IL-3) and colony stimulating factor (G-CSF), and 25 μg or more of synthetic peptides derived from casein: peptide J, representing amino acids 1-22 of α-S1 casein (SEQ ID NO. 21), or β-casein, representing amino acids 193-208 of β-casein (SEQ ID No. 28). Exposure of the human bone marrow progenitor cells to peptides derived from casein was for 14 days. Stimulation of colony formation (CFU) is expressed as the number of myeloid per colonies in 10^5 plated MNCs. Note the synergistic increase (>50% with 100 μg/ml of peptide J, and >30% with 300 μg/ml of synthetic β-casein) in myelocyte formation in cultures exposed to G-CSF, IL-3 and the synthetic peptides derived from β-casein and an N terminal portion of α-S1 casein.
A similar effect of synthetic peptides derived from α-, β- or κ-casein was observed on the proliferation of granulocytes and macrophages from human bone marrow progenitor cells. […] (FIG. 20). Thus, synthetic peptides derived from αS1-, αS2-, β- or κ-casein or combinations thereof are effective in augmenting the effect of granulopoietic factors such as G-CSF on bone marrow hematopoietic progenitor cell differentiation and expansion.

## MAIPPKKNQDKTEIPTINTIAS [κ 106-127]
[1]
  Early (E.MK) megakaryocyte formation (in words): dramatic effect
  increase in total megakaryocyte proliferation over controls: 21%
[2]; listed as SEQ ID NO: 30
  enhancement of platelet counts compared to control mice: 26%

## RPK [1P]
[3]; 100 μg/ml, 7 days post infection, untreated control 0.52
  HIV-P24 antigen: 0.17 ng P^24 Antigen/ml
[3]; 500 μg/ml, 7 days post infection, untreated control 0.52
  HIV-P24 antigen: 0.14 ng P^24 Antigen/ml
[4]; 25 μg/ml peptide
  patients responding (of the 5 tested): 3
[4]; 100 μg/ml peptide
  patients responding (of the 5 tested): 1
[4]; 250 μg/ml peptide
  patients responding (of the 5 tested): 1
[4]; PBS cells from donors with hematopoietic disease
  target cell lysis, fold that of untreated controls: ≥ 2 fold

## RPKHP [3P]
[3]; virus pre-treated 3 hours, 10 μg per ml, 7 days post infection, control 0.52
  HIV-P24 antigen: 0.26 ng P^24 Ag per ml
[3]; virus pre-treated 3 hours, 25 μg per ml, 7 days post infection, control 0.52
  HIV-P24 antigen: 0.18 ng P^24 Ag per ml
[1]
  megakaryocyte formation and development (in words): significant increase

## RPKHPI [4P]
[3]; virus pre-incubated 3 hours, 7 days post infection
  HIV-P24 antigen (in words): dose dependent reduction
[3]; virus pre-treated 3 hours, 250 μg per ml, infected control 1.06×10^6
  cell counts: 1.59×10^6
[1]
  megakaryocyte formation and development (in words): significant increase
[2]; 12 days post transplantation
  increase in platelet counts over untreated controls: 29%
  platelet count: 872000 mL⁻¹

## RPKHPIKHQ [X]
[5]
  glucose tolerance (IPGT) test result in words: no evidence of abnormal glucose metabolism

## RPKHPIKHQGL [2a]
[1]
  megakaryocyte formation and development (in words): significant increase

## RPKHPIKHQGLP [3a]
[1]
  megakaryocyte formation and development (in words): significant increase
[2]; 10 days post transplantation
  increase in platelet counts over untreated controls: up to 35.5%
  platelet count: 229000 mL⁻¹
[2]; 12 days post transplantation
  increase in platelet counts over untreated controls: up to 13.5%
  platelet count: 622000 mL⁻¹

## RPKHPIKHQGLPQEVLN
[1]
  megakaryocyte formation and development (in words): significant increase

## RPKHPIKHQGLPQEVLNE [F]
[1]
  megakaryocyte formation and development (in words): significant increase

## RPKHPIKHQGLPQEVLNENL
[1]
  megakaryocyte formation and development (in words): significant increase

## RPKHPIKHQGLPQEVLNENLL
[1]
  megakaryocyte formation and development (in words): significant increase

## RPKHPIKHQGLPQEVLNENLLR [J]
[6]; day 10
  peripheral white blood cell count: 2.74 ×10^6 cells per ml
[6]; day 12
  peripheral white blood cell count: 5.20 ×10^6 cells per ml
[6]; listed as SEQ ID NO: 21
  early leukocyte reconstitution (in words): dramatic enhancement; also recorded: strong stimulation
[1]
  Early (E.MK) megakaryocyte formation (in words): dramatic effect

## RPKHPIKHQGLPQEVLNENLLRFF
[1]
  megakaryocyte formation and development (in words): significant increase

## YQEPVLGPVRGPFPII [β 193-208]
[7]; listed as SEQ ID NO: 28
  enhancement of granulopoietic stimulating effect of G-CSF (myelocyte formation): 30%
[7]; listed as synthetic β-casein
  enhancement of granulopoietic stimulating effect of G-CSF (myelocyte formation): > 30%
[6]; listed as SEQ ID NO: 28
  early leukocyte reconstitution (in words): dramatic enhancement; also recorded: strong stimulation
[1]
  Early (E.MK) megakaryocyte formation (in words): dramatic effect
  increase in total megakaryocyte proliferation over controls: 32%
[2]; listed as SEQ ID NO: 28
  enhancement of platelet counts compared to control mice: 32%
